# Source: patent US6610883B1, “Compounds having selective activity for retinoid X receptors, and means for modulation of processes mediated by retinoid X receptors” (Ligand Pharmaceuticals, Inc., priority 1992, dated 2003)
# Read-outs that look alike come from different tables or passages of the source.
# Key:
# Type in all cases: cell-based
# [1] = molecular target: T1, RARα (Homo sapiens, UniProt P10276); assay: Co-transfection (cis-trans) assay in CV-1 cells, RARα; design: expressed in transfected cells; host or cells: CV-1 (monkey kidney); conditions: for Emax at 10 µM: CV-1, maximal response relative to all-trans-retinoic acid at 10^−5 M, read-out: Efficacy; for EC50: CV-1 cells, luciferase reporter, 36 h, read-out: Potency
# T1 sequence (P10276 1-462): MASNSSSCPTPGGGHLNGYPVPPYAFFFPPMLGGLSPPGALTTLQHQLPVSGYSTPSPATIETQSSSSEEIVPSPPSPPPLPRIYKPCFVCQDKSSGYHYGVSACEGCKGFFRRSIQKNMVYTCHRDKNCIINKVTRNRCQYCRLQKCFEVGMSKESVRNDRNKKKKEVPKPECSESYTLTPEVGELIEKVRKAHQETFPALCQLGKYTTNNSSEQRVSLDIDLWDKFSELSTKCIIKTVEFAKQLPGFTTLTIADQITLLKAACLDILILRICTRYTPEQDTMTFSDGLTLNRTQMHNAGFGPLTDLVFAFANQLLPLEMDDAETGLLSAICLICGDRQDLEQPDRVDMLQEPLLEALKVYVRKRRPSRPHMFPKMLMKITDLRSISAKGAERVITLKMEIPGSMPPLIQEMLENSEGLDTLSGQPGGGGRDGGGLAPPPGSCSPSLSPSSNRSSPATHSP
# Excerpt: (§1) The co-transfection assay provides a mechanism to evaluate the ability of a compound to modulate the transcription response initiated by an intracellular receptor. […] Berger, et al., J. Steroid Biochem Molec.
# (§2) Briefly, the co-transfection assay involves the introduction of two plasmids by transient transfection into a retinoid receptor-negative mammalian cell background. The first plasmid contains a retinoid receptor cDNA and directs constitutive expression of the encoded receptor. The second plasmid contains a cDNA that encodes for a readily quantifiable protein, e.g., firefly luciferase or chloramphenicol acetyl transferase (CAT), under control of a promoter containing a retinoid acid response element, which confers retinoid dependence on the transcription of the reporter. In this co-transfection assay, all retinoid receptors respond to all-trans-retinoic acid in a similar fashion. This assay can be used to accurately measure efficacy and potency of retinoic acid and synthetic retinoids as ligands that interact with the individual retinoid receptor subtypes.
# (§3) Accordingly, synthetic retinoid compounds of the current invention were evaluated for their interaction with retinoid receptor subtypes using the co-transfection assay in which CV-1 cells were co-transfected with one of the retinoid receptor subtypes, a reporter construct, and an internal control to allow normalization of the response for transfection efficiency. The following example is illustrative.
# (§4) Retinoids: All-tans-retinoic acid (RA) and 13-cis-retinoic acid (13-cis-RA) were obtained from Sigma. […] Retinoids were dissolved in dimethylsulfoxide for use in the transcriptional activation assays.
# (§5) Co-transfection Assay In CV-1 Cells: A monkey kidney cell line, CV-1, was used in the cis-trans assay. Cells were transfected with two plasmids. […] The cis-vector contains an easily assayable gene product, in this case the firefly luciferase, coupled to a retinoid-responsive promoter, i.e., an RARE or RXRE. Addition of retinoic acid or an appropriate synthetic retinoid results in the formation of a retinoid-RAR or -RXR complex that activates the expression of luciferase gene, causing light to be emitted from cell extracts. The level of luciferase activity is directly proportional to the effectiveness of the retinoid-receptor complex in activating gene expression. This sensitive and reproducible co-transfection approach permits the identification of retinoids that interact with the different receptor isoforms.
# (§6) Cells were cultured in DMEM supplemented with 10% charcoal resin-stripped fetal bovine serum, and experiments were conducted in 96-well plates. […] Cells were transfected for 6 h and then washed to remove the precipitate. The cells were then incubated for 36 h with or without retinoid. After the transfection, all subsequent steps were performed on a Beckman Biomek Automated Workstation. […] All determinations were performed in triplicate in two independent experiments and were normalized for transfection efficiency by using β-galactosidase as the internal control. […] Efficacy values less than 5% are not statistically different than the 0% background.
# [2] = molecular target: T2, RXRγ (Mus musculus, UniProt P28705); assay: Co-transfection (cis-trans) assay in CV-1 cells, RXRγ; conditions: for Emax at 10 µM: CV-1, maximal response relative to all-trans-retinoic acid at 10^−5 M, read-out: Efficacy
# T2 construct: expressed in transfected cells; host or cells: CV-1 (monkey kidney)
# T2 sequence (P28705 1-463): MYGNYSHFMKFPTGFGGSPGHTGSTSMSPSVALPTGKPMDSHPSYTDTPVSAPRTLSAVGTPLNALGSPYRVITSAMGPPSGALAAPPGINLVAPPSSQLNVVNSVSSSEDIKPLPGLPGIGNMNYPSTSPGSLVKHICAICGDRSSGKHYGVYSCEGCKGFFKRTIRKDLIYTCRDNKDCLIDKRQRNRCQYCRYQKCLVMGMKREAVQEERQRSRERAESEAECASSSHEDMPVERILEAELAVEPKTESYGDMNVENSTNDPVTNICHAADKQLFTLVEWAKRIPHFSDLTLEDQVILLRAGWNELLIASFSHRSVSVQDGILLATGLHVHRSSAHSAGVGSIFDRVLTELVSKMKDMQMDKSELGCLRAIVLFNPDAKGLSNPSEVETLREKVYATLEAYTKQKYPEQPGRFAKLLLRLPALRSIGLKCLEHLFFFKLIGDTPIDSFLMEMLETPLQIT
# Excerpt: as §1, §2, §3, §4, §5, §6
# [3] = molecular target: T3, RARγ (Homo sapiens, UniProt P13631); assay: Co-transfection (cis-trans) assay in CV-1 cells, RARγ; design: expressed in transfected cells; host or cells: CV-1 (monkey kidney); conditions: for Emax at 10 µM: CV-1, maximal response relative to all-trans-retinoic acid at 10^−5 M, read-out: Efficacy; for EC50: CV-1 cells, luciferase reporter, 36 h, read-out: Potency
# T3 sequence (P13631 1-454): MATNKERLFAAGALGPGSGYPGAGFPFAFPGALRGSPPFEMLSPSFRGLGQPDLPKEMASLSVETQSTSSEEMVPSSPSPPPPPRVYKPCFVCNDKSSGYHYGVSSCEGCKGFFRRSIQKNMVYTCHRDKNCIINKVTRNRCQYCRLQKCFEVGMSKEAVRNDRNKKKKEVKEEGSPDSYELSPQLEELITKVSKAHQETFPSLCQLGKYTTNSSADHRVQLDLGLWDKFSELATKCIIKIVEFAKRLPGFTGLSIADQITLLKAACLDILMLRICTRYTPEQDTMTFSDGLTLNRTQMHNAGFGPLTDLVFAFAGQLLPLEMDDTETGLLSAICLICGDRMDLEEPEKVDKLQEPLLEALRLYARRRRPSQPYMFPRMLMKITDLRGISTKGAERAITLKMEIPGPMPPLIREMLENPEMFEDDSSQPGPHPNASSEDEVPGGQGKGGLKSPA
# Excerpt: as §1, §2, §3, §4, §5, §6
# [4] = RXRγ, CV-1 cells, luciferase reporter, 36 h, read-out: Potency
compound,measurement,setting,value
"Cc1cc2c(cc1C(=O)c1ccc(C(=O)Nc3ccc(O)cc3)cc1)C(C)(C)CCC2(C)C [3-Methyl-TTNCHBP, 4-[(3,5,5,8,8-pentamethyl-5,6,7,8-tetrahydro-2-naphthyl)carbonyl]-N-(4-hydroxyphenyl)benzamide]",Emax at 10 µM,[1],< 2%
same,EC50,[1],> 10000 nM
same,Emax at 10 µM,[2]; RXRγ,128%
same,EC50,[2]; [4],300 nM
same,Emax at 10 µM,[3],17%
same,EC50,[3],> 10000 nM
"CC(/C=C/C1(c2cc3c(cc2C)C(C)(C)CCC3(C)C)CC1)=C\C(=O)O [Compound 104, (2E,4E)-3-methyl-5-[1-(3,5,5,8,8-pentamethyl-5,6,7,8-tetrahydro-2-naphthyl)cyclopropyl]penta-2,4-dienoic acid]",Emax at 10 µM,[1],7%
same,EC50,[1],> 10000 nM
same,Emax at 10 µM,[2]; RXRγ,85%
same,EC50,[2]; [4],7 nM
same,Emax at 10 µM,[3],28%
same,EC50,[3],144 nM
"CC1=C(C=CC2CCCCC2/C=C/C(C)=C/C(=O)O)C(C)(C)CCC1 (stereo not drawn) [Compound 100, 3-methyl-5-(2-[2-(2,6,6-trimethylcyclohexen-1-yl)ethenyl]cyclohexyl)-2E,4E-pentadienoic acid]",Emax at 10 µM,[1],9%
same,EC50,[1],> 10000 nM
same,Emax at 10 µM,[2]; RXRγ,72%
same,EC50,[2]; [4],106 nM
same,Emax at 10 µM,[3],4%
same,EC50,[3],> 10000 nM
"C/C(=C/C=C/C(C)=C/C(=O)O)c1cc2c(cc1C)C(C)(C)CCC2(C)C [Compound 128, (2E,4E,6Z)-7-(3,5,5,8,8-pentamethyl-5,6,7,8-tetrahydro-2-naphthyl)-3-methyl-octa-2,4,6-trienoic acid]",Emax at 10 µM,[1],12%
same,EC50,[1],> 10000 nM
same,Emax at 10 µM,[2]; RXRγ,115%
same,EC50,[2]; [4],10 nM
same,Emax at 10 µM,[3],37%
same,EC50,[3],309 nM
"CC(/C=C/C=C(\c1ccc2c(c1)C(C)(C)CCC2(C)C)C(C)C)=C\C(=O)O [Compound 123, (2E,4E,6Z)-7-(5,5,8,8-tetramethyl-5,6,7,8-tetrahydro-2-naphthyl)-3,8-dimethyl-nona-2,4,6-trienoic acid]",Emax at 10 µM,[1],11%
same,EC50,[1],> 10000 nM
same,Emax at 10 µM,[2]; RXRγ,97%
same,EC50,[2]; [4],24 nM
same,Emax at 10 µM,[3],49%
same,EC50,[3],283 nM
"CC1=C(/C=C/C(=C\C=C\C(C)=C\C(=O)O)C(C)C)C(C)(C)CCC1 [Compound 75, 3-methyl-7-isopropyl-9-(2,6,6-trimethyl-1-cyclohexen-1-yl)-2E,4E,6Z,8E-nonatetranoic acid]",Emax at 10 µM,[1],< 2%
same,EC50,[1],> 10000 nM
same,Emax at 10 µM,[2]; RXRγ,106%
same,EC50,[2]; [4],11 nM
same,Emax at 10 µM,[3],119%
same,EC50,[3],150 nM
"CC1=C(/C=C/C(=C\C=C\C(C)=C\C(=O)O)C(C)(C)C)C(C)(C)CCC1 [Compound 77, 3-methyl-7-t-butyl-9-(2,6,6-trimethyl-1-cyclohexen-1-yl)-2E,4E,6Z,8E-nonatetranoic acid]",Emax at 10 µM,[1],< 2%
same,EC50,[1],> 10000 nM
same,Emax at 10 µM,[2]; RXRγ,71%
same,EC50,[2]; [4],9 nM
same,Emax at 10 µM,[3],44%
same,EC50,[3],170 nM
"C=C(c1ccc(C(=O)Nc2ccc(O)cc2)cc1)c1cc2c(cc1C)C(C)(C)CCC2(C)C [3-Methyl-TTNEHBP (63), 4-[1-(3,5,5,8,8-pentamethyl-5,6,7,8-tetrahydro-2-naphthyl)ethenyl]-N-(4-hydroxyphenyl)benzamide]",Emax at 10 µM,[1],< 2%
same,EC50,[1],> 10000 nM
same,Emax at 10 µM,[2]; RXRγ,163%
same,EC50,[2]; [4],48 nM
same,Emax at 10 µM,[3],10%
same,EC50,[3],> 10000 nM
"C=C(c1ccc(C(=O)O)cc1)c1cc2c(cc1Br)C(C)(C)CCC2(C)C [3-Bromo-TTNEB, 4-[1-(3-bromo-5,5,8,8-tetramethyl-5,6,7,8-tetrahydro-2-naphthyl)ethenyl]benzoic acid]",Emax at 10 µM,[1],3%
same,EC50,[2],52 nM
same,Emax at 10 µM,[3],15%
"CCCC(=C/C=C/C(C)=C/C(=O)O)/C=C/C1=C(C)CCCC1(C)C [Compound 74, 3-methyl-7-propyl-9-(2,6,6-trimethyl-1-cyclohexen-1-yl)-2E,4E,6Z,8E-nonatetranoic acid]",Emax at 10 µM,[1],< 2%
same,EC50,[1],> 10000 nM
same,Emax at 10 µM,[2]; RXRγ,85%
same,EC50,[2]; [4],12 nM
same,Emax at 10 µM,[3],61%
same,EC50,[3],37 nM
CC1=C(/C=C/C2(C/C=C/C(C)=C/C(=O)O)CC2)C(C)(C)CCC1 [Compound 110],Emax at 10 µM,[1],9%
same,EC50,[1],> 10000 nM
same,Emax at 10 µM,[2]; RXRγ,87%
same,EC50,[2]; [4],198 nM
same,Emax at 10 µM,[3],37%
same,EC50,[3],1770 nM
